The results in this text go back to patent publication US11999728B2, “Estrogen receptor modulators” (Recurium IP Holdings, LLC, priority 2020, dated 2024).

Broadly, the IC50 is the concentration at which inhibition is half-maximal. A low value points to greater potency. One may read the AUC(0-t) as the area under the concentration-time curve up to a stated or last time point. Usually clearance stands for a measure of how efficiently the substance is removed, as volume per time. A higher clearance goes with a high capacity for elimination. One may read the half-life as the time in which the quantity being followed falls by half. A word on the bioavailability: it is dose-corrected exposure relative to a reference, in per cent. Read a low bioavailability as poor availability. In general, Cmax refers to the highest concentration seen after dosing. By Tmax is commonly meant the time from dosing to the highest level.

One data set relates to MCF7. As to the kind of experiment: Breast Cancer Cell Proliferation Assay (MCF-7), Cell Titer-Glo. It is filed as cell-based. As to conditions: Homo sapiens, MCF7 cells, 5 days of compound exposure. Here is the method:
Breast Cancer Cell Proliferation Assay (MCF-7)
MCF7 was expanded and maintained in the medium (Phenol red free DMEM/F12 (Hyclone SH30272.01) NEAA (Gibco11140-050) Na-pyruvate (Gibco 11360-070) and Re-stripped Charcoal stripped FBS (Gemini 100-119)). The cells were adjusted to a concentration of 3,000 cells per mL in the above media, and the cells were incubated (37° C., 5% CO2). The following day a 10-point, serial dilution of compounds was added to the cells at a final concentration ranging from 10-0.000005 μM for test compounds (17β-estradiol was used as a control). Additional cells were plated in 30 wells to serve as the day 1 (pretreatment) comparison. After 5 days of compound exposure, Cell Titer-Glo reagent was added to the cells and the relative luminescence units (RLUs) of each well was determined. Cell Titer-Glo was also added to 32 μL of medium without cells to obtain a background value. The plates were allowed to incubate at room temperature for 10 minutes to stabilize luminescent signal and the luminescence signal was recorded with EnSpire. The relative increase in cell number of each sample is determined as follows: (RLU sample-RLU background/RLU estrogen only treated cells-RLU background)×100=% inhibition.

Data set [1] can be described thus: Pharmacokinetic Determination (Mouse PK). It counts as in vivo, female CD-1 mice. As to conditions: female; for Kp at 2 h: CD-1, PO 10.0 mg/kg, Brain concentration vs plasma concentration at 2 hours post dosing, read-out: B/P ratio; for AUC(0-t) / clearance / half-life / Vd / bioavailability / Cmax / Tmax: CD-1, plasma; for Vd: read-out: Vdss; for bioavailability: PO 10.0 mg/kg vs IV 3.0 mg/kg. Here is the method: Pharmacokinetic Determination
Grouping female CD-1 mice weighing 20-30 g randomly to three groups; one group was administered with test compound at a dose of 3.0 mg/kg by intravenous injection, the other two groups were administered with test compound at a dose of 10.0 mg/kg by oral. The formulation for IV groups is DMSO/PEG400/30% HP-β-CD (5/20/75) and the formulation for PO groups is 25% HP-β-CD in 25 mM citrate buffer (pH3.0). After administering, blood samples of intravenous injection group were collected at time points of predose, 0.0833, 0.25, 0.5, 1, 2, 4, 8, 12 and 24 h; blood samples of oral group were collected at time points of predose, 0.25, 0.5, 1, 2, 4, 8, 12, and 24 h. Both blood samples and brain samples were collected at 2 hours post dosing for the second PO group. Standard curve was plotted based on concentrations of the samples in a suitable range, the concentrations of test compounds in plasma samples and brain samples were determined by using LC-MS/MS. Pharmacokinetic parameters were calculated according to drug concentration-time curve using a noncompartmental method by WinNonLin (Phoenix™, version 6.1) or other similar software.

As to `C[C@@H]1Cc2c([nH]c3ccccc23)[C@@H](c2ccc(O[C@H]3CCN(CCCF)C3)nc2)N1C12CC(C1)C2` (single isomer, unassigned) [Compound 10], the IC50 in the data set on MCF7 (MCF7, 120 h) was ≤ 0.025 µM. In data set [1], the Kp at 2 h amounted to 7.51 and the bioavailability is 15.3%. Moreover, in data set [1] (IV, 3.0 mg/kg), the AUC(0-t) was found to be 1.03 µM·h, the clearance is 101 mL/min/kg, the half-life was 2.19 h and the Vd stood at 12.8 L/kg. Further, in data set [1] (PO, 10.0 mg/kg), the AUC(0-t) turned out to be 0.527 µM·h, the Cmax was 178 nM, the Tmax is 0.5 h and the half-life is 2.12 h.

`C[C@@H]1Cc2c([nH]c3ccccc23)[C@@H](c2c(F)cc(O[C@@H]3CCN(CCCF)C3)cc2F)N1C12CC(C1)C2` (single isomer, unassigned) [Compound 5]: the IC50 in the data set on MCF7 (MCF7, 120 h) was 0.025 to 0.25 µM. In data set [1], the Kp at 2 h was 7.07 and the bioavailability was found to be 49.5%. Moreover, in data set [1] (IV, 3.0 mg/kg), the AUC(0-t) was found to be 2.93 µM·h, the clearance was 30.2 mL/min/kg, the half-life was 9.1 h and the Vd was found to be 16.7 L/kg. Besides, in data set [1] (PO, 10.0 mg/kg), the AUC(0-t) worked out at 4.84 µM·h, the Cmax stood at 610 nM, the Tmax worked out at 1 h and the half-life is 9.4 h.

As to `C[C@@H]1Cc2c([nH]c3ccccc23)[C@@H](c2ccc(N[C@@H]3CN(CCCF)C[C@H]3F)cc2)N1C12CC(C1)C2` [Compound 75, (3R,4R)—N-(4-((1R,3R)-2-(bicyclo[1.1.1]pentan-1-yl)-3-methyl-2,3,4,9-tetrahydro-1H-pyrido[3,4-b]indol-1-yl)phenyl)-4-fluoro-1-(3-fluoropropyl)pyrrolidin-3-amine], the IC50 in the data set on MCF7 (MCF7, 120 h) is ≤ 0.025 µM. In data set [1], the Kp at 2 h came to 6.84 and the bioavailability came to 59.2%. Further, in data set [1] (IV, 3.0 mg/kg), the AUC(0-t) was found to be 1.49 µM·h, the clearance is 66.1 mL/min/kg, the half-life is 7.29 h and the Vd was 17.9 L/kg. Also, in data set [1] (PO, 10.0 mg/kg), the AUC(0-t) is 2.94 µM·h, the highest concentration (Cmax) is 840 nM, the Tmax was found to be 0.5 h and the half-life was 7.38 h.

Take `C[C@@H]1Cc2c([nH]c3ccccc23)[C@@H](c2c(F)cc(N[C@H]3CCN(CCCF)C3)cc2F)N1C12CC(CO)(C1)C2` (single isomer, unassigned) [Compound 70]: the IC50 with MCF7 (MCF7, 120 h) was ≤ 0.025 µM. In data set [1] (IV, 3.0 mg/kg), the AUC(0-t) is 2.46 µM·h, the clearance is 36.1 mL/min/kg, the half-life was 6.51 h and the Vd is 12.2 L/kg. Also, in data set [1], the bioavailability came out at 21.4%. In data set [1] (PO, 10.0 mg/kg), the AUC(0-t) is 2.09 µM·h, the highest level (Cmax) was 210 nM, the Tmax turned out to be 2 h and the half-life was 5.25 h.

On to `C[C@@H]1Cc2c([nH]c3ccccc23)[C@@H](c2ccc(NC3CN(CCCF)C3)cc2)N1C12CC(C1)C2` [Compound 40, N-(4-((1R,3R)-2-(bicyclo[1.1.1]pentan-1-yl)-3-methyl-2,3,4,9-tetrahydro-1H-pyrido[3,4-b]indol-1-yl)phenyl)-1-(3-fluoropropyl)azetidin-3-amine], for which the IC50 in the data set with MCF7 (MCF7, 120 h) was ≤ 0.025 µM. In addition, in data set [1], the Kp at 2 h was 13.5 and the bioavailability amounted to 70.5%. In addition, in data set [1] (IV, 3.0 mg/kg), the AUC(0-t) is 1.47 µM·h, the clearance was determined as 64.2 mL/min/kg, the half-life was 11.5 h and the Vd was 49.6 L/kg. For the same compound, in data set [1] (PO, 10.0 mg/kg), the AUC(0-t) was found to be 3.46 µM·h, the concentration peaked (Cmax) at 261 nM and the Tmax came to 1 h.

As to `C[C@@H]1Cc2c([nH]c3ccccc23)[C@@H](c2ccc(OC3CN(CCCF)C3)cc2)N1C12CC(CO)(C1)C2` (single isomer, unassigned) [Compound 50], the IC50 in the data set with MCF7 (MCF7, 120 h) was ≤ 0.025 µM.

Consider `CCCN1CC(Oc2ccc([C@@H]3c4[nH]c5ccccc5c4C[C@@H](C)N3C34CC(CO)(C3)C4)cc2)C1` (single isomer, unassigned) [Compound 52], for which the IC50 in the data set on MCF7 (MCF7, 120 h) was ≤ 0.025 µM.

As to `CCCN1C[C@@H](F)[C@H](Nc2ccc([C@@H]3c4[nH]c5ccccc5c4C[C@@H](C)N3C34CC(C3)C4)cc2)C1` [Compound 87, (3R,4R)—N-(4-((1R,3R)-2-(bicyclo[1.1.1]pentan-1-yl)-3-methyl-2,3,4,9-tetrahydro-1H-pyrido[3,4-b]indol-1-yl)phenyl)-4-fluoro-1-propylpyrrolidin-3-amine], in the data set on MCF7 (MCF7, 120 h), the IC50 is ≤ 0.025 µM.

In the data set on MCF7 (MCF7, 120 h), `C[C@@H]1Cc2c([nH]c3ccccc23)[C@@H](c2ccc(O[C@@H]3CCN(CCCF)C3)cc2)N1C12CC(C1)C2` (single isomer, unassigned) [Compound 7] displayed an IC50 of 0.025 to 0.25 µM.

`C[C@@H]1Cc2c([nH]c3ccccc23)[C@@H](c2ccc(NC3CN(CCC#N)C3)cn2)N1C12CC(C1)C2` [Compound 4, 3-(3-((6-((1S,3R)-2-(bicyclo[1.1.1]pentan-1-yl)-3-methyl-2,3,4,9-tetrahydro-1H-pyrido[3,4-b]indol-1-yl)pyridin-3-yl)amino)azetidin-1-yl)propanenitrile] displayed an IC50 with MCF7 (120 h) of 0.025 to 0.25 µM.

For the compound `C[C@@H]1Cc2c([nH]c3ccccc23)[C@@H](c2c(F)cc(O[C@H]3CCN(CCCF)C3)cc2F)N1C12CC(C(N)=O)(C1)C2` (single isomer, unassigned) [Compound 35], the IC50 with MCF7 (MCF7, 120 h) was ≤ 0.025 µM.

With `C[C@@H]1Cc2c([nH]c3ccccc23)[C@@H](c2ccc(O[C@@H]3CCN(CCCF)C3)cn2)N1C12CC(C1)C2` (single isomer, unassigned) [Compound 11], the concentration for half-maximal inhibition (IC50) with MCF7 (MCF7, 120 h) was ≥ 0.25 µM.

`C[C@@H]1Cc2c([nH]c3ccccc23)[C@@H](c2ccc(N3CC(NCCCF)C3)cn2)N1C12CC(C1)C2` [Compound 49, 1-(6-((1S,3R)-2-(bicyclo[1.1.1]pentan-1-yl)-3-methyl-2,3,4,9-tetrahydro-1H-pyrido[3,4-b]indol-1-yl)pyridin-3-yl)-N-(3-fluoropropyl)azetidin-3-amine]: in the data set on MCF7 (MCF7, 120 h), the IC50 was ≥ 0.25 µM.

For the compound `C#CCN1CC(Nc2ccc([C@@H]3c4[nH]c5ccccc5c4C[C@@H](C)N3C34CC(C3)C4)nc2)C1` [Compound 48, 6-((1S,3R)-2-(bicyclo[1.1.1]pentan-1-yl)-3-methyl-2,3,4,9-tetrahydro-1H-pyrido[3,4-b]indol-1-yl)-N-(1-(prop-2-yn-1-yl)azetidin-3-yl)pyridin-3-amine], the IC50 in the data set on MCF7 (MCF7, 120 h) is ≤ 0.025 µM.

As for `C[C@@H]1Cc2c([nH]c3ccccc23)[C@@H](c2c(F)cc(OC3CN(CCCF)C3)cc2F)N1C12CC(C1)C2` [Compound 23, (1R,3R)-2-(bicyclo[1.1.1]pentan-1-yl)-1-(2,6-difluoro-4-((1-(3-fluoropropyl)azetidin-3-yl)oxy)phenyl)-3-methyl-2,3,4,9-tetrahydro-1H-pyrido[3,4-b]indole], the IC50 in the data set with MCF7 (MCF7, 120 h) is ≤ 0.025 µM.

Take `C[C@@H]1Cc2c([nH]c3ccccc23)[C@@H](c2ccc(OC3CN(CCCF)C3)cc2)N1C12CC(C1)C2` [Compound 38, (1R,3R)-2-(bicyclo[1.1.1]pentan-1-yl)-1-(4-((1-(3-fluoropropyl)azetidin-3-yl)oxy)phenyl)-3-methyl-2,3,4,9-tetrahydro-1H-pyrido[3,4-b]indole]: the IC50 with MCF7 (MCF7, 120 h) is ≤ 0.025 µM.

With `C[C@@H]1Cc2c([nH]c3ccccc23)[C@@H](c2cnc(NC3CN(CCCF)C3)nc2)N1C12CC(C1)C2` [Compound 57, 5-((1R,3R)-2-(bicyclo[1.1.1]pentan-1-yl)-3-methyl-2,3,4,9-tetrahydro-1H-pyrido[3,4-b]indol-1-yl)-N-(1-(3-fluoropropyl)azetidin-3-yl)pyrimidin-2-amine], in the data set with MCF7 (MCF7, 120 h), the IC50 is 0.025 to 0.25 µM.

In the case of `C[C@@H]1Cc2c([nH]c3ccccc23)[C@@H](c2ccc(NC3CN(CCCF)C3)cc2)N1C12CC(CF)(C1)C2` (single isomer, unassigned) [Compound 62], the IC50 in the data set with MCF7 (MCF7, 120 h) is ≥ 0.25 µM.

For `C[C@@H]1Cc2c([nH]c3ccccc23)[C@@H](c2ccc(N[C@@H]3CN(CCCF)C[C@H]3O)cc2)N1C12CC(C1)C2` (single isomer, unassigned) [Compound 80], the IC50 in the data set on MCF7 (MCF7, 120 h) was ≤ 0.025 µM.
